Paper PMC4074212, “Tetra- and Pentacyclic Triterpene Acids from the Ancient Anti-inflammatory Remedy Frankincense as Inhibitors of Microsomal Prostaglandin E2 Synthase-1” (Journal of Natural Products, 2014)
“Also recorded” adds a separate entry of the source.

Legend:
mPGES-1 = biological target: T1, mPGES-1 (Homo sapiens, UniProt O14684); experiment: cell-free mPGES-1 activity assay (microsomes of IL-1β-stimulated A549 cells, PGE2 formation from PGH2); assay type: biochemical; conditions: for inhibition of mPGES-1 activity (in words): tested at / up to 10 μM
T1 construct: using microsomes of IL-1β-stimulated A549 cells as enzyme source; endogenous in cells; host or cells: A549 cells, IL-1β-induced, microsomal fraction
T1 sequence (O14684 1-152): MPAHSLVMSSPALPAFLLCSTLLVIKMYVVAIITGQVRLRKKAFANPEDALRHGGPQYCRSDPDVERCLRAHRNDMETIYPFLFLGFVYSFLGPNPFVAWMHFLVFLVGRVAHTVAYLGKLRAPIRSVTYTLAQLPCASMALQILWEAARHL

COX enzymes = test system: COX enzymes; set-up: method as in PMID 17945191, PMID 20188172, PMID 24354175; conditions: cited from earlier work
[1] = test system: phorbol ester-induced ear inflammation; set-up: method as in PMID 16621377; conditions: applied topically, mice; cited from earlier work

SMILES: CC(C)=CCC[C@H](C(=O)O)[C@@H]1CC[C@]2(C)C3=C(CC[C@@]12C)[C@@]1(C)CC[C@@H](O)C(C)(C)[C@@H]1CC3 [Compound 5, 3-α-hydroxy-8,24-dienetirucallic acid]
- inhibition at 10 µM (mPGES-1; at 10 μM): 96%

SMILES: CC(=O)O[C@@H]1CC[C@]2(C)C3=C(CC[C@H]2C1(C)C)[C@@]1(C)CC[C@@H]([C@H](CCC=C(C)C)C(=O)O)[C@]1(C)CC3 [Compound 6, 3α-acetoxy-8,24-dienetirucallic acid]
- concentration range of COX enzyme inhibition (COX enzymes): two-digit micromolar range

SMILES: C=C(C)[C@@H]1CC[C@]2(C)[C@H](CC=C3[C@@H]4[C@@H](C)[C@H](C)CC[C@]4(C)CC[C@]32C)[C@@]1(C)CCC(=O)O [Compound 11, roburic acid]
- inhibition of mPGES-1 activity (in words) (mPGES-1): failed to significantly inhibit; also recorded: not active
- concentration range of COX enzyme inhibition (COX enzymes): two-digit micromolar range

SMILES: CC(C)[C@@H]1CC[C@]2(C)[C@H](CC=C3[C@@H]4[C@@H](C)[C@H](C)CC[C@]4(C)CC[C@]32C)[C@@]1(C)CCC(=O)O [Compound 12, 4,(23)-dihydroroburic acid]
- inhibition of mPGES-1 activity (in words) (mPGES-1): failed to significantly inhibit; also recorded: not active

SMILES: CC(C)[C@@H]1CC[C@]2(C)[C@H](CC=C3[C@@H]4CC(C)(C)CC[C@]4(C)CC[C@]32C)[C@@]1(C)CCC(=O)O [Compound 14, 4,(23)-dihydronyctanthic acid]
- inhibition of mPGES-1 activity (in words) (mPGES-1): failed to significantly inhibit; also recorded: inactive

SMILES: C=C(C)[C@@H]1CC[C@]2(C)CC[C@]3(C)[C@H](CC[C@@H]4[C@@]5(C)CC[C@H](O)[C@](C)(C(=O)O)[C@@H]5CC[C@]43C)[C@@H]12 [Compound 15, Lupeolic acid]
- inhibition of phorbol ester-induced ear inflammation [1]: inhibited

SMILES: C=C(C)[C@@H]1CC[C@]2(C)CC[C@]3(C)[C@H](CC[C@@H]4[C@@]5(C)CC[C@H](OC(C)=O)[C@](C)(C(=O)O)[C@@H]5CC[C@]43C)[C@@H]12 [Compound 16, 3-O-acetyllupeolic acid]
- inhibition of phorbol ester-induced ear inflammation [1]: inhibited
